In patent publication US9315498B2, “Arlethynyl derivatives” (Hoffmann-La Roche Inc., priority 2010, dated 2016) one finds EC50 and Emax data, which are given here for 31 compounds.

The test addresses human mGlu5a receptor (Homo sapiens (Human), UniProt P41594). The test is described as follows: Intracellular Ca2+ mobilization assay (mGlu5 PAM). Particulars: for EC50: HEK-293 cells stably transfected with human mGlu5a, L-glutamate added at EC20 after pre-incubation with test compound, read-out: EC50 (nM) mGlu5PAM; for Emax: maximal response in % of the maximal stimulatory effect obtained with saturating concentrations of L-glutamate, read-out: Eff. (%). The test is classed as cell-based. The protocol: A monoclonal HEK-293 cell line stably transfected with a cDNA encoding for the human mGlu5a receptor was generated; for the work with mGlu5 Positive Allosteric Modulators (PAMs), a cell line with low receptor expression levels and low constitutive receptor activity was selected to allow the differentiation of agonistic versus PAM activity. Cells were cultured according to standard protocols (Freshney, 2000) in Dulbecco's Modified Eagle Medium with high glucose supplemented with 1 mM glutamine, 10% (vol/vol) heat-inactivated bovine calf serum, Penicillin/Streptomycin, 50 μg/ml hygromycin and 15 μg/ml blasticidin (all cell culture reagents and antibiotics from Invitrogen, Basel, Switzerland).
About 24 hrs before an experiment, 5×10^4 cells/well were seeded in poly-D-lysine coated, black/clear-bottomed 96-well plates. The cells were loaded with 2.5 μM Fluo-4AM in loading buffer (1×HBSS, 20 mM HEPES) for 1 hr at 37° C. and washed five times with loading buffer. The cells were transferred into a Functional Drug Screening System 7000 (Hamamatsu, Paris, France), and 11 half logarithmic serial dilutions of test compound at 37° C. were added and the cells were incubated for 10-30 min. with on-line recording of fluorescence. Following this pre-incubation step, the agonist L-glutamate was added to the cells at a concentration corresponding to EC20 (typically around 80 μM) with on-line recording of fluorescence; in order to account for day-to-day variations in the responsiveness of cells, the EC20 of glutamate was determined immediately ahead of each experiment by recording of a full dose-response curve of glutamate.
Responses were measured as peak increase in fluorescence minus basal (i.e. fluorescence without addition of L-glutamate), normalized to the maximal stimulatory effect obtained with saturating concentrations of L-glutamate. Graphs were plotted with the % maximal stimulatory using XLfit, a curve fitting program that iteratively plots the data using Levenburg Marquardt algorithm. The single site competition analysis equation used was y=A+((B−A)/(1+((x/C)D))), where y is the % maximal stimulatory effect, A is the minimum y, B is the maximum y, C is the EC50, x is the log10 of the concentration of the competing compound and D is the slope of the curve (the Hill Coefficient). From these curves the EC50 (concentration at which half maximal stimulation was achieved), the Hill coefficient as well as the maximal response in % of the maximal stimulatory effect obtained with saturating concentrations of L-glutamate were calculated.
A depression of the signal observed after addition of the EC20 concentration of L-glutamate was indicative of an inhibitory activity of the test compound.
Background: A change in cytosolic calcium serves as a functional read-out for many receptors and channels.

The term EC50 denotes the midpoint of the concentration-response curve.

Chain of human mGlu5a receptor (P41594 other isoform, or with tags, fused parts or gaps): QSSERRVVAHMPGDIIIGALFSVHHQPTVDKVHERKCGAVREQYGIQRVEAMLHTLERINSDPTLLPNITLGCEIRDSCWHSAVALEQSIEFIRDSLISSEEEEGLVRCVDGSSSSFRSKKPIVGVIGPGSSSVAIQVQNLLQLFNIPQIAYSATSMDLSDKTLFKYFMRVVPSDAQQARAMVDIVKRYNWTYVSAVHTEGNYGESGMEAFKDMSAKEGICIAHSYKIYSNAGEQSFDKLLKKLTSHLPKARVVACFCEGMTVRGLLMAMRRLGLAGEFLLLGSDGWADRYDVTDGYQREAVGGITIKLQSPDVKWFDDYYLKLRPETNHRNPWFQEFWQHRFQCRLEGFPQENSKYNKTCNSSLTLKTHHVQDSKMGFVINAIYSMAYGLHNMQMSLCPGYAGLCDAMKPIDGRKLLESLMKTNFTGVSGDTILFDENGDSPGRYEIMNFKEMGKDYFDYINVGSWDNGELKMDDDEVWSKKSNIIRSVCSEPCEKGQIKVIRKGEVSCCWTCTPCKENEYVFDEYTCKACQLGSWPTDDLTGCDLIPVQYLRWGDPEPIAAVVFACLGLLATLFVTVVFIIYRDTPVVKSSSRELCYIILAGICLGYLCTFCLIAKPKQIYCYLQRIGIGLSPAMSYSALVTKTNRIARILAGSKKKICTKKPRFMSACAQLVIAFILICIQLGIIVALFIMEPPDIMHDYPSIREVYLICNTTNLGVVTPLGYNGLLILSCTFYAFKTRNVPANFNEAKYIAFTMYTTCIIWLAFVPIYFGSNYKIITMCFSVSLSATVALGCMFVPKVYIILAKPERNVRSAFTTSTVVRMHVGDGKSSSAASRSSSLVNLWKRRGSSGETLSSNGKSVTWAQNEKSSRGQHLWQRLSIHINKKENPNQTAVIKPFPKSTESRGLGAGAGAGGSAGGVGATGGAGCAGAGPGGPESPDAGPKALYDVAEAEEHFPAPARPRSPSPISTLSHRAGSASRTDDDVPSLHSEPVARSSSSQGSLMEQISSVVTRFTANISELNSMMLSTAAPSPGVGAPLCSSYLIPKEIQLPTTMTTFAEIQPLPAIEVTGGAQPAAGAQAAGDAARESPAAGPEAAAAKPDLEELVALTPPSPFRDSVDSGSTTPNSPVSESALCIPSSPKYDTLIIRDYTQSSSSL

With `CN1C(=O)N(c2ccc(C#Cc3ccccc3)cn2)CC1(C)C` [Example 16, 3,4,4-Trimethyl-1-(5-phenylethynyl-pyridin-2-yl)-imidazolidin-2-one], the EC50 turned out to be 35 nM and the Emax came out at 103%.

For the compound `CCN1C(=O)N(c2ccc(C#Cc3ccccc3)cn2)CC1(C)C` [Example 17, 3-Ethyl-4,4-dimethyl-1-(5-phenylethynyl-pyridin-2-yl)-imidazolidin-2-one], the EC50 is 66 nM and the Emax was 103%.

Consider `CC(C)N1C(=O)N(c2ccc(C#Cc3ccccc3)cn2)CC1(C)C` [Example 18, 3-Isopropyl-4,4-dimethyl-1-(5-phenylethynyl-pyridin-2-yl)-imidazolidin-2-one], for which the EC50 stood at 39 nM and the Emax was 133%.

As for `CC1(C)CC(=O)N(c2ncc(C#Cc3ccccc3)cc2F)C1` [Example 21, 1-(3-Fluoro-5-phenylethynyl-pyridin-2-yl)-4,4-dimethyl-pyrrolidin-2-one], the EC50 worked out at 30 nM and the Emax was 128%.

As to `CC1(C)CNC(=O)N(c2ccc(C#Cc3ccccc3)cn2)C1` [Example 25, 5,5-Dimethyl-1-(5-phenylethynyl-pyridin-2-yl)-tetrahydro-pyrimidin-2-one], the EC50 was found to be 69 nM and the Emax was 148%.

For `CN1CC(C)(C)CN(c2ccc(C#Cc3ccccc3)cn2)C1=O` [Example 26, 1,5,5-Trimethyl-3-(5-phenylethynyl-pyridin-2-yl)-tetrahydro-pyrimidin-2-one], the Emax is 131%.

On to `CC1(C)OC(=O)N(c2ccc(C#Cc3ccccc3)cn2)C1(C)C` [Example 28, 4,4,5,5-Tetramethyl-3-(5-phenylethynyl-pyridin-2-yl)-oxazolidin-2-one], for which the EC50 was found to be 48 nM and the Emax amounted to 31%.

Turning to `CC1(C)CN(c2ccc(C#Cc3cncc(F)c3)cn2)C(=O)O1` [Example 29, 3-[5-(5-Fluoro-pyridin-3-ylethynyl)-pyridin-2-yl]-5,5-dimethyl-oxazolidin-2-one], the EC50 was 15 nM and the Emax came to 45%.

In the case of `CC1(C)CN(c2ccc(C#Cc3cncnc3)cn2)C(=O)O1` [Example 30, 5,5-Dimethyl-3-(5-pyrimidin-5-ylethynyl-pyridin-2-yl)-oxazolidin-2-one], the EC50 is 80 nM and the Emax was found to be 43%.

Regarding `Cn1cc(C#Cc2ccc(N3CC(C)(C)OC3=O)nc2)cn1` [Example 31, 5,5-Dimethyl-3-[5-(1-methyl-1H-pyrazol-4-ylethynyl)-pyridin-2-yl]-oxazolidin-2-one], the EC50 amounted to 26 nM and the Emax amounted to 55%.

Consider `CC1(C)CN(c2ccc(C#Cc3ccc(F)cc3)cn2)C(=O)O1` [Example 32, 3-[5-(4-Fluoro-phenylethynyl)-pyridin-2-yl]-5,5-dimethyl-oxazolidin-2-one], for which the EC50 is 19 nM and the Emax was 60%.

In the case of `CC1(C)CN(c2ccc(C#Cc3ccc(F)c(F)c3)cn2)C(=O)O1` [Example 33, 3-[5-(3,4-Difluoro-phenylethynyl)-pyridin-2-yl]-5,5-dimethyl-oxazolidin-2-one], the EC50 is 32 nM and the Emax was determined as 44%.

For the compound `CC1(C)CN(c2ccc(C#Cc3cc(F)ccc3F)cn2)C(=O)O1` [Example 34, 3-[5-(2,5-Difluoro-phenylethynyl)-pyridin-2-yl]-5,5-dimethyl-oxazolidin-2-one], the EC50 worked out at 11 nM and the Emax is 38%.

As for `CC1(C)CN(c2ccc(C#Cc3ccc(F)nc3)cn2)C(=O)O1` [Example 35, 3-[5-(6-Fluoro-pyridin-3-ylethynyl)-pyridin-2-yl]-5,5-dimethyl-oxazolidin-2-one], the EC50 was found to be 54 nM and the Emax is 52%.

Turning to `O=C1OC2(CC2)CN1c1ccc(C#Cc2cccnc2)cn1` [Example 36, 6-(5-Pyridin-3-ylethynyl-pyridin-2-yl)-4-oxa-6-aza-spiro[2.4]heptan-5-one], the EC50 amounted to 58 nM and the Emax was 80%.

With `CC1(C)CC(=O)N(c2ccc(C#Cc3cncc(F)c3)cn2)C1` [Example 37, 1-[5-(5-Fluoro-pyridin-3-ylethynyl)-pyridin-2-yl]-4,4-dimethyl-pyrrolidin-2-one], the EC50 worked out at 22 nM and the Emax came out at 96%.

On to `CC1(C)CC(=O)N(c2ccc(C#Cc3cccnc3)cn2)C1` [Example 38, 4,4-Dimethyl-1-(5-pyridin-3-ylethynyl-pyridin-2-yl)-pyrrolidin-2-one], for which the EC50 came to 33 nM and the Emax was determined as 147%.

Regarding `CC1(C)CC(=O)N(c2ccc(C#Cc3cncc(Cl)c3)cn2)C1` [Example 39, 1-[5-(5-Chloro-pyridin-3-ylethynyl)-pyridin-2-yl]-4,4-dimethyl-pyrrolidin-2-one], the EC50 was 48 nM and the Emax worked out at 98%.

With `CC1(C)CC(=O)N(c2ccc(C#Cc3cccc(F)c3)cn2)C1` [Example 40, 1-[5-(3-Fluoro-phenylethynyl)-pyridin-2-yl]-4,4-dimethyl-pyrrolidin-2-one], the EC50 was found to be 15 nM and the Emax amounted to 100%.

In the case of `Cc1cc(C#Cc2ccccc2)cnc1N1CC(C)(C)CC1=O` [Example 41, 4,4-Dimethyl-1-(3-methyl-5-phenylethynyl-pyridin-2-yl)-pyrrolidin-2-one], the EC50 is 58 nM and the Emax worked out at 89%.

As to `CC1(C)CCC(=O)N(c2ccc(C#Cc3ccccc3)cn2)C1` [Example 42, 5,5-Dimethyl-5′-phenylethynyl-3,4,5,6-tetrahydro-[1,2′]bipyridinyl-2-one], the EC50 was found to be 16 nM and the Emax worked out at 139%.

For `CC1(C)CCC(=O)N(c2ccc(C#Cc3cccc(F)c3)cn2)C1` [Example 43, 5′-(3-Fluoro-phenylethynyl)-5,5-dimethyl-3,4,5,6-tetrahydro-[1,2′]bipyridinyl-2-one], the EC50 came to 12 nM and the Emax is 100%.

Take `CN1C(=O)N(c2ccc(C#Cc3ccccc3)cn2)CC12CCCC2` [Example 44, 1-Methyl-3-(5-phenylethynyl-pyridin-2-yl)-1,3-diaza-spiro[4.4]nonan-2-one]: the EC50 was found to be 29 nM and the Emax turned out to be 92%.

As to `CN1C(=O)N(c2ccc(C#Cc3cccnc3)cn2)CC1(C)C` [Example 48, 3,4,4-Trimethyl-1-(5-pyridin-3-ylethynyl-pyridin-2-yl)-imidazolidin-2-one], the EC50 came to 14 nM and the Emax was 89%.

Turning to `CN1C(=O)N(c2ccc(C#Cc3cncc(F)c3)cn2)CC1(C)C` [Example 49, 1-[5-(5-Fluoro-pyridin-3-ylethynyl)-pyridin-2-yl]-3,4,4-trimethyl-imidazolidin-2-one], the EC50 was determined as 37 nM and the Emax turned out to be 91%.

As to `CN1C(=O)N(c2ccc(C#Cc3cnn(C)c3)cn2)CC1(C)C` [Example 50, 3,4,4-Trimethyl-1-[5-(1-methyl-1H-pyrazol-4-ylethynyl)-pyridin-2-yl]-imidazolidin-2-one], the EC50 was found to be 27 nM and the Emax was found to be 41%.

Consider `CN1C(=O)N(c2ccc(C#Cc3cncc(Cl)c3)cn2)CC1(C)C` [Example 51, 1-[5-(5-Chloro-pyridin-3-ylethynyl)-pyridin-2-yl]-3,4,4-trimethyl-imidazolidin-2-one], for which the EC50 was 29 nM and the Emax turned out to be 45%.

With `CN1C(=O)N(c2ccc(C#Cc3ccnnc3)cn2)CC1(C)C` [Example 52, 3,4,4-Trimethyl-1-(5-pyridazin-4-ylethynyl-pyridin-2-yl)-imidazolidin-2-one], the EC50 stood at 34 nM and the Emax worked out at 32%.

With `CN1C(=O)N(c2ccc(C#Cc3cccc(F)c3)cn2)CC1(C)C` [Example 53, 1-[5-(3-Fluoro-phenylethynyl)-pyridin-2-yl]-3,4,4-trimethyl-imidazolidin-2-one], the EC50 is 29 nM and the Emax stood at 103%.

Take `CN1C(=O)N(c2ccc(C#Cc3cccc(Cl)c3)cn2)CC1(C)C` [Example 54, 1-[5-(3-Chloro-phenylethynyl)-pyridin-2-yl]-3,4,4-trimethyl-imidazolidin-2-one]: the EC50 was found to be 32 nM and the Emax is 47%.

Regarding `CN1C(=O)N(c2ccc(C#Cc3cncnc3)cn2)CC1(C)C` [Example 55, 3,4,4-Trimethyl-1-(5-pyrimidin-5-ylethynyl-pyridin-2-yl)-imidazolidin-2-one], the concentration for a half-maximal effect (EC50) is 54 nM and the Emax turned out to be 110%.
